According to PubChem BioAssay (NCI):
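Grown in 96-well plates, cells were treated for 48 hours with each compound at five concentrations. Insufficient inhibition: endpoint recorded as highest concentration tested. At the TGI there is no net growth.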

Tests used:
Assay in all cases: inhibition of tumour cell growth, NCI panel, 48 h
[1] = tested on: 786-0 renal
[2] = tested on: A498 renal
[3] = tested on: ACHN renal
[4] = tested on: CAKI-1 renal
[5] = tested on: CCRF-CEM leukemia
[6] = tested on: DU-145 prostate
[7] = tested on: EKVX NSCLC
[8] = tested on: HCT-116 colon
[9] = tested on: HCT-15 colon
[10] = tested on: HL-60(TB) leukemia
[11] = tested on: HOP-62 NSCLC
[12] = tested on: HS 578T breast
[13] = tested on: HT29 colon
[14] = tested on: IGROV1 ovarian
[15] = tested on: K-562 leukemia
[16] = tested on: KM12 colon
[17] = tested on: LOX IMVI melanoma
[18] = tested on: M14 melanoma
[19] = tested on: MCF7 breast
[20] = tested on: MDA-MB-231 breast
[21] = tested on: MDA-MB-435
[22] = tested on: MDA-N
[23] = tested on: MOLT-4 leukemia
[24] = tested on: NCI-H226 lung
[25] = tested on: NCI-H23 lung
[26] = tested on: NCI-H460 lung
[27] = tested on: NCI-H522 lung
[28] = tested on: NCI/ADR-RES ovarian
[29] = tested on: OVCAR-3 ovarian
[30] = tested on: OVCAR-4 ovarian
[31] = tested on: OVCAR-5 ovarian
[32] = tested on: OVCAR-8 ovarian
[33] = tested on: PC-3 prostate
[34] = tested on: RPMI-8226 leukemia
[35] = tested on: RXF 393 renal
[36] = tested on: SF-268 CNS
[37] = tested on: SF-295 CNS
[38] = tested on: SF-539 CNS
[39] = tested on: SK-MEL-2 melanoma
[40] = tested on: SK-MEL-28 melanoma
[41] = tested on: SK-MEL-5 melanoma
[42] = tested on: SK-OV-3 ovarian
[43] = tested on: SR leukemia
[44] = tested on: SW-620 colon
[45] = tested on: T-47D breast
[46] = tested on: TK-10 renal
[47] = tested on: U251 CNS
[48] = tested on: UACC-257 melanoma
[49] = tested on: UO-31 renal

`Cc1nn(CNc2ccc(F)c(Cl)c2)c(=S)n1/N=C/c1ccc(-c2ccc(Cl)cc2Cl)o1` was tested, and the TGI [1] was 29 µM, the TGI [2] was 30.3 µM and the TGI [3] was 30.7 µM. For the same compound, the TGI [4] was 35.8 µM, the TGI [5] was 18.5 µM and the TGI [6] was 30.7 µM. The TGI [7] was 42.6 µM, the TGI [8] was 30.7 µM and the TGI [9] was 41.6 µM. For the same compound, the TGI [10] was 16.9 µM, the TGI [11] was 35.9 µM and the TGI [12] was 52.9 µM. The TGI [13] was 41.4 µM, the TGI [14] was 34.6 µM and the TGI [15] was 15.5 µM. For the same compound, the TGI [16] was 55.7 µM, the TGI [17] was 44.9 µM and the TGI [18] was 36.9 µM. It also gave a TGI [19] of 37.3 µM, a TGI [20] of 34.9 µM and a TGI [21] of 39 µM. The TGI [22] was 33.5 µM, the TGI [23] was 6.59 µM and the TGI [24] was 46.8 µM. It also gave a TGI [25] of 38.8 µM, a TGI [26] of 33.7 µM and a TGI [27] of 29.7 µM. It also gave a TGI [28] of 44.5 µM, a TGI [29] of 33.1 µM and a TGI [30] of 50 µM. The TGI [31] was 41.2 µM, the TGI [32] was 48.5 µM and the TGI [33] was 30.9 µM. The TGI [34] was 29.7 µM, the TGI [35] was 34.3 µM and the TGI [36] was 34.6 µM. For the same compound, the TGI [37] was 33.7 µM, the TGI [38] was 34.8 µM and the TGI [39] was 41.3 µM. It also gave a TGI [40] of 44.3 µM, a TGI [41] of 35.1 µM and a TGI [42] of 33.2 µM. It also gave a TGI [43] of 14.7 µM, a TGI [44] of 29.2 µM and a TGI [45] of 58.8 µM. It also gave a TGI [46] of 28.9 µM, a TGI [47] of 29 µM and a TGI [48] of 46.9 µM. For the same compound, the TGI [49] was 32.2 µM.
